According to patent publication US8900819B2, “ADRB2 cancer markers” (The Regents of The University of Michigan, priority 2007, dated 2014):
“Also recorded” adds a separate entry of the source.

Assays:
[1] = test system: ADRB2 transcript; test: qRT-PCR of ADRB2 transcript after DZNep in breast and prostate cancer cell lines; format: cell-based; settings: 5 μM, 48 hrs; batch of breast and prostate cancer cell lines; FIG. 3K
Method: (§1) The ADRB2 antagonist ICI 118,551, and agonist Isoproterenol was purchased from Sigma-Aldrich, and used at a working concentration of 1 μM, 10 μM or 100 μM. SAHA was obtained from Biovision Inc, dissolved in DMSO, and used at a working concentration of 1 μM. DZNep was used at 5 μM and cells were treated for 48 hrs before being harvested for RNA isolation.
(§2) SYBR green qRT-PCR was carried out according to standard protocols in triplicates (Kleer et al., 2003, supra). Samples were normalized to the mRNA level of the house-keeping gene GAPDH or RPL13A.

[2] = test system: RWPE benign prostate epithelial cells; test: Immunoblot of EMT biomarkers and cell adhesion molecules in RWPE cells; format: cell-based; settings: FIG. 4F
Method: as §1
Cell extracts were separated by SDS-PAGE and blotted onto nitrocelllular membranes, immunoblotted with antibodies and visualized using ECL-plus (Amercham Bioscience). The following antibodies were used: ADRB2 (Abcam), β-tubulin (Santa Cruz), EZH2 (BD Bioscience). The anti-ADRB2 antibody usually gives a major band of predicted size (46.5 kDa). However, some lots of this antibody may give an extra, weaker band about 5 kDa above the predicted band.

[3] = test system: RWPE cells; test: Modified basement membrane invasion assay in RWPE cells; format: cell-based; settings: noninvasive RWPE cells treated with 0, 1, or 10 μM; FIG. 4C
Method: as §1
(§3) Basement membrane matrix invasion assay was essentially performed as previously described (Kleer et al., 2003, supra). Briefly, warm serum free medium was mixed with Matrigel (Fisher Scientific) at 1:3 ratio, 300 μl of this Matrigel mixture was added into the center of each cell well inserts of the Chemicon 24-well plate (Chemicon), and allowed to solidify at room temperature for 1-2 hrs. Cells were trypsinized and resuspended in serum-free medium. Approximately 1×10^5 cells in 300 μl of serum free medium were placed into each insert, the upper chamber, whereas 500 μl of full medium was added to the lower chamber. Cells were treated with corresponding drug for 10 min prior to be placed into invasion chambers. Cells were then grown in the upper chamber for 48 hrs. The non-invading cells inside the insert were removed and the insert were stained for invaded cells on the lower surface of the membrane. The stained cells were then counted using a microscope and images taken.

[4] = test system: DU145 prostate cancer cells; test: Murine prostate tumor xenograft model (DU145); format: in vivo; settings: nude mice, daily intraperitoneal injection 400 μg/day or 800 ug/day vs PBS; FIG. 5B
Method: All procedures involving mice were approved by the University Committee on Use and Care of Animals of the University of Michigan. Male nude athymic BALB/c nu/nu mice 5-week-old (Charles River Laboratory, Wilmington, Mass.) were used for examining the tumorigenicity. […] To evaluate the role of β-adrenergic signaling in tumor formation, DU145 cell was propagated, and treated with PBS or 10 μM Isoproterenol at 24 hrs prior to harvest. Cells were then harvested and suspended in a 0.1 ml PBS with or without treatment of 10 μM Isoproterenol. A total of 15 mice (n=5 per group) were each implanted with 5×10^6 DU145 cells into the dorsal flank subcutaneously. Treatment started 24 hrs after implantation. Each group was administered daily by intraperitoneal injection with either PBS or Isoproterenol (at 400 μg/day or 800 μg/day). Tumor size was measured every week and tumor volumes were estimated using the formula (n/6)(L×W2), where L=length of tumor and W=width.

[5] = test system: DU145 prostate cancer cells; test: Modified basement membrane invasion assay in DU145 cells; format: cell-based
Method: as §3, with “The ADRB2 antagonist ICI 118,551, and agonist Isoproterenol was purchased from Sigma-Aldrich, and used at a working concentration of 1 μM, 10 μM or 100 μM. SAHA was obtained from Biovision Inc, dissolved in DMSO, and used at a working concentration of 1 μM. DZNep was used at 5 μM and cells were treated for 48 hrs before being harvested for RNA isolation. Basement” for “Basement”

[6] = test system: RWPE-shADRB2 cells; test: Modified basement membrane invasion assay in RWPE-shADRB2 cells; format: cell-based; settings: RWPE-shADRB2 cells treated with 0, 10, or 100 μM
Method: The ADRB2 antagonist ICI 118,551, and agonist Isoproterenol was purchased from Sigma-Aldrich, and used at a working concentration of 1 μM, 10 μM or 100 μM. SAHA was obtained from Biovision Inc, dissolved in DMSO, and used at a working concentration of 1 μM. DZNep was used at 5 μM and cells were treated for 48 hrs before being harvested for RNA isolation. EZH2 adenovirus infection and RNA interference were performed as described (Kleer et al., Proc Natl Acad Sci USA 100, 11606-11611 2003; Varambally et al., Cancer Cell 8, 393-406 2002). RWPE cells with stable ADRB2 knockdown were generated by transfection with ADRB2 shRNA constructs (Open Biosystems, Huntsville, Ala.) and selection with puromycin. DU145 cell lines with stable EZH2 knockdown were generated using EZH2 shRNA expressing constructs (Open Biosystems). Basement membrane matrix invasion assay was essentially performed as previously described (Kleer et al., 2003, supra). Briefly, warm serum free medium was mixed with Matrigel (Fisher Scientific) at 1:3 ratio, 300 μl of this Matrigel mixture was added into the center of each cell well inserts of the Chemicon 24-well plate (Chemicon), and allowed to solidify at room temperature for 1-2 hrs. Cells were trypsinized and resuspended in serum-free medium. […] The stained cells were then counted using a microscope and images taken.

[7] = test system: ADRB2 promoter; test: ChIP of endogenous PRC2 complex, 3mH3K27 and acetylated H3 at the ADRB2 promoter; format: cell-based; settings: FIG. 3H-I
Method: ChIP was performed according to published protocols with slight modifications (Boyd et al., Proc Natl Acad Sci USA 95, 13887-13892 1998). Briefly, formaldehyde was added directly to the cultured cells to a final concentration of 1%. For metastasis tissues, samples were first chopped into small pieces with a razor blade and transferred into 5-10 ml PBS before adding formaldehyde. Cells were rotated at room temperature for 10 min. The crosslinking was stopped by 1/20V of 2.5M Glycine and the cells were washed with 1×PBS and harvested in 1×PBS with proteinase inhibitors. Metastasis tissue samples were further disaggregated using a tissue homogenizer. The cells were then pelleted and resuspended in cell lysis buffer containing protease inhibitors. After incubation in cell lysis buffer for 10 min, the samples were pelleted, resuspended in nuclei lysis buffer and sonicated to chromatins with an average size of 500 bp. The chromatins were precleared using Salmon sperm DNA/Protein A Agarose-50% flurry and incubated with specific antibodies overnight. […] The next day, the antibody-bound chromatin was pooled down using protein A/agarose, washed extensively, and reverse-crosslinked. Immunoprecipitated DNA and whole cell extract DNA were purified by treatment with RNase A, proteinase K and purified using Qiaquick PCR purification kit (Qiagen, Valencia, Calif.). The purified DNA was used for PCR analysis of enrichment. Purified DNA was blunted and ligated to linkers and amplified by a two-stage ligation-mediated PCR (LM-PCR) protocol (Lee et al., Cell 125, 301-313 2006) to generate enough chromatins for PCR analysis of multiple target genes or for hybridization to promoter arrays. Equal amount of amplified input and ChIP-enriched chromatins were subjected to PCR testing for enrichment of target gene promoters. For ChIP and qRT-PCR analysis, DU145 cells were treated with 0.5 μM of SAHA for 30 min, 2, 6, 12 and 24 hrs prior to harvest.

[8] = test system: ADRB2 transcript; test: qRT-PCR of ADRB2 transcript after SAHA time course; format: cell-based; settings: time course of SAHA treatment; FIG. 3J
Method: For ChIP and qRT-PCR analysis, DU145 cells were treated with 0.5 μM of SAHA for 30 min, 2, 6, 12 and 24 hrs prior to harvest.
as §2

[9] = test system: ADRB2 promoter; test: ChIP of ectopic Myc-EZH2 at the ADRB2 promoter in H16N2 cells; format: cell-based, human; settings: H16N2 cells with EZH2 adenovirus; FIG. 3F
Method: ChIP was performed according to published protocols with slight modifications (Boyd et al., Proc Natl Acad Sci USA 95, 13887-13892 1998). Briefly, formaldehyde was added directly to the cultured cells to a final concentration of 1%. For metastasis tissues, samples were first chopped into small pieces with a razor blade and transferred into 5-10 ml PBS before adding formaldehyde. Cells were rotated at room temperature for 10 min. The crosslinking was stopped by 1/20V of 2.5M Glycine and the cells were washed with 1×PBS and harvested in 1×PBS with proteinase inhibitors. Metastasis tissue samples were further disaggregated using a tissue homogenizer. The cells were then pelleted and resuspended in cell lysis buffer containing protease inhibitors. After incubation in cell lysis buffer for 10 min, the samples were pelleted, resuspended in nuclei lysis buffer and sonicated to chromatins with an average size of 500 bp. The chromatins were precleared using Salmon sperm DNA/Protein A Agarose-50% flurry and incubated with specific antibodies overnight. Antibodies used in this study include EZH2 (BD Bioscience), EED (Upstate), SUZ12 (Abeam), trimethylated H3K27 (Upstate), Acetyl-H3K27 (Upstate), Myc (Abeam), and IgG control (Santa Cruz). The next day, the antibody-bound chromatin was pooled down using protein A/agarose, washed extensively, and reverse-crosslinked. […]

## Nc1nccc2c1ncn2C1C=C(CO)C(O)C1O (centres unmarked) [DZNep]
[1]
  ADRB2 transcript: Marked up-regulation; also recorded: strong induction (de-repression) of ADRB2 in all cell lines tested

## Cc1ccc(OCC(O)C(C)NC(C)C)c2c1CCC2 (centres unmarked) [ICI 118,551]
[2]
  expression of EMT biomarkers and cell adhesion molecules: regulates the expression of EMT biomarkers and cell adhesion molecules; also recorded: recaptured the expressional changes in RWPE-shADRB2 cells
[3]
  cell invasion: leads to increased invasion; also recorded: significantly increased invasion

## CC(C)NCC(O)c1ccc(O)c(O)c1 (centres unmarked) [Isoproterenol]
[4]
  xenograft tumor size: significantly (two-sample t-test, p=0.006) smaller tumors
[5]; DU145 cells treated with 0, 10, or 100 μM
  cell invasion: inhibits cell invasion
[5]; DU145 cells treated with 0, 10, or 100 μM, listed as isoproterenol
  cell invasion: significantly reduced invasion
[5]; PCA model system, cell line not given
  cell invasion: decreased cell invasion
[6]
  cell invasion: inhibits cell invasion
[6]; listed as isoproterenol
  cell invasion: significantly reduced invasion

## O=C(CCCCCCC(=O)Nc1ccccc1)NO [SAHA]
[7]
  H3K27 trimethylation at the ADRB2 promoter: marked reduction of PRC2 binding and consequent H3K27 trimethylation
  acetylated H3 at the ADRB2 promoter: accumulation of acetylated H3
[7]; endogenous PRC2
  PRC2 binding at the ADRB2 promoter: sensitive to the HDAC inhibitor SAHA; also recorded: marked reduction of PRC2 binding
[8]
  ADRB2 transcript: up-regulated; also recorded: upregulation of ADRB2 transcripts
[9]
  recruitment of Myc-EZH2 to the ADRB2 promoter: this binding being sensitive to SAHA
